Here are results for 1 compound from US8404647B2, “Peptidylarginine deiminase (PAD) inhibitors” (Chiralix B.V., priority 2008, dated 2013).

Usually IC50 stands for the point on the concentration scale where inhibition reaches its midpoint.

SMILES strings stand for the structures. Square brackets hold non-standard residues; d marks the D form. Peptide text beside a SMILES is read from it. Orn(fluoroacetimidoyl) = N=C(CF)NCCC[C@H](N)C(=O)O

In one experiment the target is PAD2 (Homo sapiens, UniProt Q9Y2J8). In words: Colorimetric assay (BAEE, DAMO/antipyrine), PAD2. Format: biochemical. As to conditions: Table 22, colorimetric assay of Example 6; read-out: IC50 values (μM) hPAD2. On the procedure:
One of the assays that was used to investigate the inhibition of a PAD by the inhibitors, is the colorimetric assay that has been described previously {Sugawara et al. 1998}. In this assay benzoylarginine ethyl ester (BAEE) is incubated with a purified recombinant PAD enzyme as indicated in a buffer containing 50 mM Tris-HCl, pH 7.6, 10 mM CaCl2, 2 mM dithiothreitol for 3 hours at 37° C. […] After cooling down to room temperature, the absorbance is measured at 450 nm.
To test the efficacy of the inhibitors (see Table 21) in this assay, a recombinant PAD enzyme as indicated was pre-incubated with various concentrations of inhibitory compounds for 15 minutes at 37° C.
The capacity of various compounds to inhibit the human PAD2 (0.12 μM) and PAD4 (0.2 μM) in this colorimetric assay is illustrated in FIG. 4.

A further experiment addresses creatine kinase (CK). In words: Creatine kinase activity (CK NAC activated liquiUV test). Format: biochemical, mammalian. As to conditions: enzyme treated with inhibitor 10 min at room temperature.
The target of another experiment is papain (Carica papaya, UniProt P00784). The experiment in a line: biochemical.
Sequence of papain (P00784 134-345): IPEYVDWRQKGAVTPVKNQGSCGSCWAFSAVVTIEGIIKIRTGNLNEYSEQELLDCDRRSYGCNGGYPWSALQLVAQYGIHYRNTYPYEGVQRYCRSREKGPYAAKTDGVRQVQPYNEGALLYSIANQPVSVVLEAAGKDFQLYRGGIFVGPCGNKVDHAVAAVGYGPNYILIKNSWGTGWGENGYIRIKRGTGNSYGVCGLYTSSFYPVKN
Another experiment addresses T1, caspase-3 (Homo sapiens, UniProt P42574).
T1 sequence (P42574 29-175 limits assumed): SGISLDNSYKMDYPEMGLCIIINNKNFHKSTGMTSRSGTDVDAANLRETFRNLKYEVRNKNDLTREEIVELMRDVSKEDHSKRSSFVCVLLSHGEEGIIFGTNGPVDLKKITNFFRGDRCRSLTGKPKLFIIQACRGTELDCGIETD
T1 sequence (P42574 176-277 limits assumed): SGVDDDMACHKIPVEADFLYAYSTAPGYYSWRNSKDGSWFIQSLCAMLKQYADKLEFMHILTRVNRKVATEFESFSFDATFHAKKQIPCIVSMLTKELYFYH
In words: Caspase-3 activity assay (Ac-DEVDpNA cleavage). Format: biochemical, mammalian. Conditions: enzyme treated with inhibitor 10 min at room temperature. On the procedure:
Upon incubation of purified recombinant caspase-3 with its commercially available substrate: acetyl-Asp-Glu-Val-Asp-p-nitroanilide (Ac-DEVDpNA) SEQ ID NO: 145 in CFS buffer (220 mM mannitol, 68 mM sucrose, 2mM NaCl, 2.5 mM KH2PO4, 10 mM HEPES, pH 7.4 plus a cocktail of protease inhibitors), the substrate is cleaved, pNA is released and its absorbance at 405 nm can be monitored.

For a further experiment, the target named is transglutaminase (TG) (UniProt P08587). The experiment in a line: biochemical.
Sequence of transglutaminase (TG) (P08587 whole entry): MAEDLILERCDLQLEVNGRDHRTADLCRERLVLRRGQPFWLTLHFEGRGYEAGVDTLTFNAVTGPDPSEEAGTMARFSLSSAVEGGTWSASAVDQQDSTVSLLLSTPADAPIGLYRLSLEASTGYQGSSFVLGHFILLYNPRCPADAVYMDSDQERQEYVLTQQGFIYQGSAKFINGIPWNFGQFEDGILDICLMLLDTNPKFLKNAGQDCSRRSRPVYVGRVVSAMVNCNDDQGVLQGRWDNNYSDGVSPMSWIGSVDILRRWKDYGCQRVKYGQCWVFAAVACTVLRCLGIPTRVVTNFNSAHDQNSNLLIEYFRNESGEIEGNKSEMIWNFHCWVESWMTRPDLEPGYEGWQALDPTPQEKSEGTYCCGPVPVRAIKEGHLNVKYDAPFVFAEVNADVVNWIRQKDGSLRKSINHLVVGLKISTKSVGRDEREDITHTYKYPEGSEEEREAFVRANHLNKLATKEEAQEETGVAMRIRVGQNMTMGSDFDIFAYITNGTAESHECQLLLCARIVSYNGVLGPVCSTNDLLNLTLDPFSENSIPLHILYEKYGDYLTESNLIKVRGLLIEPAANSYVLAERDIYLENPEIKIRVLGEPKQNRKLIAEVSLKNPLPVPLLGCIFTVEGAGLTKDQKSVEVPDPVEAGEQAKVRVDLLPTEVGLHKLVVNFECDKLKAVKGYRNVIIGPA
The target of another experiment is hDDAH-1 (Homo sapiens, UniProt O94760). The experiment in a line: biochemical.
Sequence of hDDAH-1 (O94760 whole entry): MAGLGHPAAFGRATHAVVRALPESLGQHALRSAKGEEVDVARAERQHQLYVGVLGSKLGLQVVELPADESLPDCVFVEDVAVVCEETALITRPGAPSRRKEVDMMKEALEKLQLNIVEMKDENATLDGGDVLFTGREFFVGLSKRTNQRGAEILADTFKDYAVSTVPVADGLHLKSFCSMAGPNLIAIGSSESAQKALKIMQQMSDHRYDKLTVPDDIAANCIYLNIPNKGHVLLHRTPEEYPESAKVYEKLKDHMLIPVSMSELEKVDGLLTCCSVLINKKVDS

Sequence of PAD2 (Q9Y2J8 whole entry): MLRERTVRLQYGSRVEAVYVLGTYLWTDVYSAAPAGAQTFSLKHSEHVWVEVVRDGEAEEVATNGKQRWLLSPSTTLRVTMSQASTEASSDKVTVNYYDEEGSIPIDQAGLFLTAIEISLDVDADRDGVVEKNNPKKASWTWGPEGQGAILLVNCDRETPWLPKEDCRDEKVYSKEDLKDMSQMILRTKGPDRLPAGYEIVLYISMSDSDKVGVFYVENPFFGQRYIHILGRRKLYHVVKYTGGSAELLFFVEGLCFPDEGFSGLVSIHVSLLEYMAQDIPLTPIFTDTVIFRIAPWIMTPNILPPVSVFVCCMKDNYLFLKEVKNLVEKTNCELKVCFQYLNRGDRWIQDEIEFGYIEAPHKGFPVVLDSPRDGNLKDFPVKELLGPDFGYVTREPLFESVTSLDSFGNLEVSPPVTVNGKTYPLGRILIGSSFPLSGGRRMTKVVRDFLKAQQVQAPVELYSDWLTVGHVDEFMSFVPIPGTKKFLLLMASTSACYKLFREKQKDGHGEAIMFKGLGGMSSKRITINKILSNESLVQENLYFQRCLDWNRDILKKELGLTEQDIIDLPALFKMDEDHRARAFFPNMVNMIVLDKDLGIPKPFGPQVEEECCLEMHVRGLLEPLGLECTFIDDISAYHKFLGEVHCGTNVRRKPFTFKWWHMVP
Description for creatine kinase (CK): (§1) The activities of CK and TG (both purchased from Sigma-Aldrich (Schnelldorf, Germany) were assayed with the help of the commercial kits CK NAC activated liquiUV test form
(§2) Human GmbH (Wiesbaden, Germany) and the Enzymatic Assay of [sequence] from Sigma-Aldrich (Schnelldorf, Germany) according to the manufacturers' instructions.
Description for hDDAH-1: The most commonly used procedure to determine hDDAH-1 activity relies on diacetyl monoxime (DAMO) derivatization of the ureido group in L-citrulline to form a colored product. This assay has been optimized for monitoring DDAH activity in a 96-well format {Knipp et al., 2000}.
Purified recombinant His6-tagged hDDAH-1 was incubated with its substrate ADMA in assay buffer (100 mM Na2HPO4, pH 8.0) at 37° C. for 1 h. The reaction was quenched by the addition of 0.3 M trifluoroacetic acid. The L-citrulline formed was modified with 1.5 mg/ml DAMO (diacetyl monoxime) and 1.0 mg/ml antipyrine in the presence of 15% sulphuric acid, 12% phosphoric acid and 0.16 mg/ml FeCla3 for 10 minutes at 100° C. After cooling down to room temperature, the absorbance was measured at 450 nm.
Description for papain: The activity of papain was assessed using a similar experimental setting, based on its cleavage of pGlu-Phe-Leu-pNA in reaction buffer (25 mM Tris-HCL, pH 7.6; 150 mM NaCl).
Description for transglutaminase (TG): as §1, §2

With `CC[C@H](C)[C@H](NC(=O)[C@H](Cc1ccccc1)NC(=O)[C@H](CC(=O)O)NC(=O)[C@H](CCCNC(=N)CF)NC(=O)[C@H](CC(=O)O)NC(=O)[C@H](Cc1ccccc1)NC(=O)[C@H](CCCCN)NC(C)=O)C(N)=O` [Peptide 0743-58FA, Ac-K-F-D-O(FA)-D-F-I-amide] (Ac-KFD[Orn(fluoroacetimidoyl)]DFI-NH2), the IC50 was 35 µM on PAD2; 800 µM at creatine kinase (CK); greater than 2000 µM on papain; 920 µM at caspase-3; 1000 µM at transglutaminase (TG); greater than 2000 µM at hDDAH-1.
